How the values were obtained:
[1] = biological target: Thymidine phosphorylase (Escherichia coli) (UniProt P07650); assay: Inhibitory activity (105 uM) against Escherichia coli thymidine phosphorylase
[2] = biological target: T1, Thymidine phosphorylase (Homo sapiens) (UniProt P19971); assay: Inhibitory activity (134 uM) against Escherichia coli thymidine phosphorylase
T1 sequence (whole entry): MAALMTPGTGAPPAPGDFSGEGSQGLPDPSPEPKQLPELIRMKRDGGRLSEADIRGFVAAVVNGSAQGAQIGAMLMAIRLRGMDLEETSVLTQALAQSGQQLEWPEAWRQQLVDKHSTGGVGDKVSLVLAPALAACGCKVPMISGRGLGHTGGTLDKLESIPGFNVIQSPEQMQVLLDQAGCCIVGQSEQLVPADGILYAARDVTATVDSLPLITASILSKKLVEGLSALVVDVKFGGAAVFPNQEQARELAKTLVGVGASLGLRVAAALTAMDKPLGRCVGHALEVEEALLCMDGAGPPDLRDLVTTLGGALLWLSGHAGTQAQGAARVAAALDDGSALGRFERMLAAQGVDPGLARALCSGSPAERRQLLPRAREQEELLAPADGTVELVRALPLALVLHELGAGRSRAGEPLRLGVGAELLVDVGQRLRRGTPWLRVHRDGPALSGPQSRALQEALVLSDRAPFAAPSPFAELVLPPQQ

Chain of Thymidine phosphorylase (Escherichia coli) (P07650 whole entry, looked up): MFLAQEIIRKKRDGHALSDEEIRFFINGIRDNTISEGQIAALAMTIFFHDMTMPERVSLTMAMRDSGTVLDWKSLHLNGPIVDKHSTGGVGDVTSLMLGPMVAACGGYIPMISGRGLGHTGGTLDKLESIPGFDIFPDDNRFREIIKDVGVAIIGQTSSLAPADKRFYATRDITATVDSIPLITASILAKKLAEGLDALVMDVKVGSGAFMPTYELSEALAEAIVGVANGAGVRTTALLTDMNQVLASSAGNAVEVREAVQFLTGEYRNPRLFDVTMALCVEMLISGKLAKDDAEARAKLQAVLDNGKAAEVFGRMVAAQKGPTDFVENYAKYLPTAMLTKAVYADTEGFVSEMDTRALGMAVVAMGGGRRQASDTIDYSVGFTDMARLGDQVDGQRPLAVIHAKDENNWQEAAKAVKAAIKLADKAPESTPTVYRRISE

CCCCC1(/C=N/N=C(/N)S)NC(=O)NC1=O (configuration not stated)
inhibition [1]: 23%

C=CCN/C(S)=N/C=C1C(=O)NC(=O)NC1=O
inhibition [2]: 60%

— ChEMBL document CHEMBL1136315, “Identification of a novel class of inhibitor of human and Escherichia coli thymidine phosphorylase by in silico screening” (Bioorg Med Chem Lett, 2003)
